Measured values reported in PubChem BioAssay (NCI).
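Where inhibition never reached the appropriate level, the endpoint shown equals the highest concentration tested. Otherwise, values were interpolated linearly from a five-concentration, 48-hour dose response in 96-well plates. GI50: concentration for 50% inhibition of growth. Definition used: TGI = concentration required for complete inhibition of growth.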

Columns and labels:
Experiment in all cases: DTP human tumour cell line panel, 48 h
[1] = system: T-47D breast
[2] = system: HCC-2998 colon
[3] = system: KM12 colon
[4] = system: SR leukemia
[5] = system: MCF7 breast
[6] = system: OVCAR-3 ovarian
[7] = system: SNB-19 CNS
[8] = system: MDA-MB-231 breast
[9] = system: SN12C renal
[10] = system: HS 578T breast

Compound	TGI [1]	TGI [2]	TGI [3]	TGI [4]	TGI [5]	TGI [6]	TGI [7]	TGI [8]	TGI [9]	TGI [10]	GI50 [6]	GI50 [9]
O=C(Nc1ccc2ccccc2c1)c1cc2cc(CCl)ccc2oc1=O	> 100 µM	> 100 µM	> 100 µM	> 100 µM	> 100 µM	> 100 µM	> 100 µM	> 100 µM	> 100 µM	8.73 µM	–	–
CCOc1cc2c(cc1O)C(N)C[C@@H]1[C@@H]2CC[C@]2(C)[C@@H](O)CC[C@@H]12 (stereo not given in full)	> 100 µM	> 100 µM	> 100 µM	63 µM	> 100 µM	> 100 µM	> 100 µM	> 100 µM	> 100 µM	> 100 µM	44.9 µM	58.6 µM
COc1ccc2c(c1)CCC/C2=N\NS(=O)(=O)c1c(C)cc(C)cc1C	53.9 µM	> 100 µM	32.9 µM	49.5 µM	> 100 µM	> 100 µM	> 100 µM	> 100 µM	45.5 µM	61.8 µM	–	–
O=C(Cc1ccccc1)NN1C(=O)/C(=C\c2ccccc2O)SC1=Nc1ccccc1	> 100 µM	> 100 µM	> 100 µM	–	> 100 µM	> 100 µM	> 100 µM	> 100 µM	> 100 µM	> 100 µM	–	–
CCOC(=O)C1=C(C)N(Cc2ccccc2)C2(O)C=CC(=O)C3=C(O)c4ccccc4C(=O)C312 (stereo not given)	45 µM	31.1 µM	28.5 µM	14.1 µM	3.44 µM	20.2 µM	88.7 µM	37.8 µM	32.1 µM	97.7 µM	–	–
Cc1csc(-n2c(C)nc3cc(Cl)ccc3c2=O)n1	–	> 100 µM	> 100 µM	> 100 µM	> 100 µM	> 100 µM	> 100 µM	> 100 µM	> 100 µM	–	–	–
CN(C)CN(C)c1nc(N(C)C)nc(N(C)CN(C)C)n1	–	> 100 µM	> 100 µM	58.3 µM	–	> 100 µM	> 100 µM	–	> 100 µM	–	–	–
CC(=O)c1sc2[n+](c1C)C(=O)/C(=C\c1ccccc1Cl)S2	36.2 µM	37.6 µM	35.2 µM	52.5 µM	29.8 µM	35.8 µM	47.6 µM	52.9 µM	78.8 µM	> 100 µM	–	–
Cc1ccccc1NC(=O)Cc1csc(N=Nc2c(O)[nH]c3ccccc23)n1	–	–	> 100 µM	–	> 100 µM	–	> 100 µM	> 100 µM	> 100 µM	84.9 µM	–	–
O=C1CC(c2ccccc2)S(=O)c2ccccc2N1 (stereo not given)	> 100 µM	–	> 100 µM	> 100 µM	> 100 µM	> 100 µM	> 100 µM	> 100 µM	> 100 µM	> 100 µM	–	–
